# Data taken from the supplement of paper PMC10949913.
# Tests used:
# Conditions in all cases: 48 h
# NCI-H295R [1] = assay: AC50 viability; higher = less potent
# Procedure, shortened: (§1)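 Three adrenocortical carcinoma cell lines were seeded at 500–1,000 cells/well in 5 µL medium in 1,536-well plates. 23 nL of each MIPE 5.0 library compound was added at 11 concentrations. After 48 h (per the protocol name), CellTiter-Glo was added for 15 minutes at room temperature and luminescence was read. Signals were normalised per plate to vehicle and empty-well controls. AC50 and area under the curve came from fitted concentration-response curves, keeping only inhibitory or non-responding curve classes.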
# CU-ACC2 [2] = assay: AC50 viability; higher = less potent
# Procedure, shortened: as §1
# NCI-H295R [3] = assay: area under concentration-response curve (viability) (AUC (a.u.)); higher = less active
# Procedure, shortened: as §1
# CU-ACC2 [4] = assay: as above
# Procedure, shortened: as §1
# CU-ACC1 = assay: as above
# Procedure, shortened: as §1
Structure (SMILES),AC50 viability (NCI-H295R [1]) [µM],AC50 viability (CU-ACC2 [2]) [µM],area under concentration-response curve (NCI-H295R [3]),area under concentration-response curve (CU-ACC2 [4]),area under concentration-response curve (CU-ACC1)
c1ccc(-c2cc(CCC3CCNCC3)c3ccccc3n2)cc1,20.9,23.5,469,561,
CN(C)c1ccc2cc(C(=O)N[C@@H](CCCNC(=N)CCl)C(=O)NCc3ccccc3)ccc2c1,11.8,0.118,247,276,
FC(F)(F)c1ccc(Nc2nc(-c3c(C(F)(F)F)nc4ccccn34)cs2)cc1,5.25,20.9,413,529,
COC1=CC(=C2C(=O)N(COC/3=C/C(=O)N4\C=C/C=C(OCCN5CCCCC5)\C4=N3)[S+]([O-])(=O)C2=C1)C(C)C,37.2,20.9,541,584,
C=C1C[C@@H]2CC[C@@]34C[C@H]5O[C@H]6[C@@H](O3)[C@H]3O[C@H](CC[C@@H]3O[C@H]6[C@H]5O4)CC(=O)C[C@@H]3[C@@H](OC)[C@@H](C[C@H](O)CN)O[C@H]3C[C@H]3O[C@@H](CC[C@@H]1O2)C[C@@H](C)C3=C,0.00959,3.4,436,461,
O=C(NCc1ccccc1)c1csc(Nc2ccncn2)n1,23.5,18.6,482,501,
Cc1cc(C(=O)Nc2cc(Nc3ccc4c(/C=C/c5ccccn5)[nH]nc4c3)ccc2F)n(C)n1,23.5,23.5,525,572,
CCn1cc(-c2ccnc3[nH]c(-c4cccc(CN(C)C)c4)cc23)c(-c2ccc(NC(=O)N(C)C)cc2)n1,18.6,18.6,514,578,
C[C@@H](Oc1cc(-c2cnn(C3CCNCC3)c2)cnc1N)c1c(Cl)ccc(F)c1Cl,3.72,16.6,353,407,
O=C(Nc1cccc(Nc2ncc(Br)c(NCCc3cnc[nH]3)n2)c1)N1CCCC1,23.5,16.6,397,418,
CC(C)COCC(CN(Cc1ccccc1)c1ccccc1)N1CCCC1 (stereo not given),23.5,26.3,536,583,
CNC(=O)c1nn(C)c2c1C(C)(C)Cc1cnc(Nc3ccc(N4CCN(C)CC4)cc3)nc1-2,18.6,7.42,473,483,
COC(=O)Nc1nc2cc(Sc3ccccc3)ccc2[nH]1,,5.25,431,393,368
CC(C)OC(=O)[C@H](C)N[P@](=O)(OC[C@H]1O[C@@H](N2\C=C/C(=O)NC2=O)[C@](C)(F)[C@@H]1O)OC3=CC=CC=C3,,5.9,386,414,388
O=C(O)c1ccc2cc(-c3ccc(O)c(C45CC6CC(CC(C6)C4)C5)c3)ccc2c1,3.72,5.25,474,452,
CN(C)C(=O)c1cc2cnc(Nc3ccc(N4CCNCC4)cn3)nc2n1C1CCCC1,,33.2,474,439,434
CC1(C)SCCN([S+](=O)([O-])c2ccc(OCC#CCO)cc2)[C@H]1C(=O)NO,,2.95,421,437,446
O=C(Nc1cccc(Cl)c1)Nc1ncc(CCNc2ncnc3ccsc23)s1,33.2,9.34,342,481,
Nc1nc(Nc2ccc3c(c2)CC[C@@H](N2CCCC2)CC3)nn1-c1cc2c(nn1)-c1ccccc1CCC2,23.5,23.5,441,534,
CN(C1=CC=CC=C1)C(=O)C/2=C(O)/C3=C(C=CC=C3)N(C)C2=O,,37.2,317,399,344
CC(C)Oc1cc(Nc2nc(N[C@@H](C)c3ccc(F)cn3)ncc2Cl)n[nH]1,,1.32,353,394,325
CC(C)(C)OC(=O)CN(Cc1ccc(Cl)cc1)Cc1ccc([N+](=O)[O-])s1,,37.2,405,479,410
Nc1ccc(C(=O)Nc2cccc(-c3nc(N4CCOCC4)c4oc5ncccc5c4n3)c2)cn1,,1.48,396,414,434
Cn1cc(/C=C2\C(=O)Nc3cccnc32)c2ccccc21,,0.105,373,320,349

Structure (SMILES),AC50 viability (NCI-H295R [1]) [µM],AC50 viability (CU-ACC2 [2]) [µM],area under concentration-response curve (NCI-H295R [3]),area under concentration-response curve (CU-ACC2 [4]),area under concentration-response curve (CU-ACC1)
CC(C)(C)c1cc(NC(=O)Nc2ccc(-c3cn4c(n3)sc3cc(OCCN5CCOCC5)ccc34)cc2)no1,,3.72,511,539,489
COc1cc2nc(-c3cc(F)ccc3O)nc(N[C@@H]3CNC[C@H]3C(C)(C)O)c2cc1OC,3.72,4.17,412,430,
COc1ccc(-c2c(-c3ccc(O)cc3O)n[nH]c2C)cc1,0.00296,0.105,71.5,224,
NC(=O)c1ccc2[nH]ccc2c1,,0.59,395,360,345
COc1cc2c(Nc3ccc(NC(=O)c4ccccc4)cc3)ncnc2cc1OCCCN1CCOCC1,18.6,20.9,505,566,
C[N]1C=NC=C1[C@@](N)(C2=CC=C(Cl)C=C2)C3=CC=C4N(C)C(=O)\C=C(\C5=CC=CC(=C5)Cl)C4=C3,0.00105,0.372,88.8,94.9,
CC(/C=C/C(=O)NO)=C\[C@@H](C)C(=O)c1ccc(N(C)C)cc1,,1.05,487,463,417
N[S+](=O)([O-])c1ccc(Cc2c(-c3cccc(-c4ccccc4)c3)nn(-c3nc(C(=O)O)cs3)c2CC2CC2)cc1,,5.9,405,388,373
Cc1ccc(Nc2ncc3c(n2)N(C)C(=O)N(c2cc(NC(=O)c4cccc(C(F)(F)F)c4)ccc2C)C3)cn1,,5.25,532,504,501
N#Cc1ccnc(Nc2cc(C3CCN(C4COC4)CC3)cc(N3CCC(F)(F)C3)n2)c1,,1.66,471,467,458
CC(C)N(CCC(=O)c1ccc2ccccc2c1)Cc1ccccc1,,20.9,603,609,557
C=CC(=O)N1CCC[C@H](n2c(=O)n(-c3ccc(Oc4ccccc4)cc3)c3c(N)ncnc32)C1,,20.9,410,410,352
CN(C)C1=CC=C(C=C1)C(C2=CC=C(C=C2)N(C)C)=C/3\C=C/C(/C=C3)=[N+](C)C,4.17,4.17,,,
CCC[C@H](Nc1nc(-c2ccc(NC(=O)NCC)c(OC)c2)ncc1C)c1cccnc1,1.32,0.372,333,338,
CN[C@@H](C)C(=O)N[C@H](C(=O)N1CCC[C@H]1C(=O)Nc1snnc1-c1ccccc1)C1CCCCC1,,1.66,401,405,413
CC1=N[NH]C=C1C2=CC\3=C(S2)C(=O)NC(=N3)\[C@@H]4CC5CCN4CC5,23.5,10.5,529,476,
C/C(=N\NC(=S)N1CCC1)c1ccccn1,,0.417,396,453,292
Cc1cc(OCc2nnc(SC3CCCC3)n2-c2cccnc2)ccc1-c1ccc([S+](C)(=O)[O-])cc1,,2.35,362,324,271
CC1(C)CNc2cc(NC(=O)c3cccnc3NCc3ccncc3)ccc21,,0.263,373,317,379
CCOc1cc2ncc(C#N)c(Nc3ccc(OCc4ccccn4)c(Cl)c3)c2cc1NC(=O)/C=C/CN(C)C,,16.6,543,572,562
Cc1cc2c(cc1CC(=O)c1sccc1[S+](=O)([O-])Nc1onc(C)c1Cl)OCO2,0.00417,0.105,127,242,
Nc1ncnc2c1c(-c1cccc(OCc3ccccc3)c1)cn2[C@H]1C[C@H](CN2CCCC2)C1,18.6,14.8,358,444,
COc1ccc(-c2cc3nccn3c(Nc3ncccc3C(N)=O)n2)cc1OC,,6.61,427,415,436
O=C(Nc1ccc2[nH]nc(-c3ccncc3)c2c1)[C@@H]1CCN(CC(=O)N2CCN(c3ccc(-c4ncccn4)cc3)CC2)C1,,11.8,482,476,444
